PubChem BioAssay (NCI)
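Assay format: 96-well plates, 48-hour exposure. TGI marks complete inhibition of growth.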

Key:
Assay in all cases: NCI-60 cell line screen, 48 h
[1] = system: HCT-15 colon
[2] = system: MCF7 breast
[3] = system: OVCAR-3 ovarian
[4] = system: DU-145 prostate
[5] = system: UO-31 renal
[6] = system: SK-MEL-28 melanoma
[7] = system: NCI-H23 lung
[8] = system: PC-3 prostate
[9] = system: SR leukemia
[10] = system: MDA-N
[11] = system: MDA-MB-231 breast
[12] = system: SK-MEL-5 melanoma
[13] = system: NCI-H460 lung
[14] = system: EKVX NSCLC
[15] = system: MALME-3M melanoma
[16] = system: RPMI-8226 leukemia
[17] = system: OVCAR-8 ovarian
[18] = system: KM12 colon
[19] = system: UACC-257 melanoma
[20] = system: HCC-2998 colon

Compound | TGI [1] [µM] | TGI [2] [µM] | TGI [3] [µM] | TGI [4] [µM] | TGI [5] [µM] | TGI [6] [µM] | TGI [7] [µM] | TGI [8] [µM] | TGI [9] [µM] | TGI [10] [µM] | TGI [11] [µM] | TGI [12] [µM] | TGI [13] [µM] | TGI [14] [µM] | TGI [15] [µM] | TGI [16] [µM] | TGI [17] [µM] | TGI [18] [µM] | TGI [19] [µM] | TGI [20] [µM]
C[N+](C)(C)CC(=O)N/N=C/c1ccncc1 | > 100 | > 100 | > 100 | > 100 | > 100 | > 100 | > 100 | > 100 | > 100 | > 100 | > 100 | > 100 | > 100 | > 100 | > 100 | > 100 | > 100 | > 100 | > 100 | –
C1CC[C@H]2SSC3CCCC[C@H]3SSC2C1 (some centres undefined) | > 100 | > 100 | > 100 | > 100 | > 100 | > 100 | > 100 | > 100 | > 100 | > 100 | > 100 | > 100 | > 100 | > 100 | – | > 100 | > 100 | > 100 | > 100 | > 100
O=C(c1ccc(Cl)cc1)N(C(=S)OCc1ccccn1)c1ccccc1 | > 100 | > 100 | > 100 | > 100 | > 100 | > 100 | > 100 | > 100 | > 100 | > 100 | > 100 | > 100 | – | 84.4 | > 100 | > 100 | > 100 | > 100 | > 100 | –
COC(=O)[C@H](CC(C)C)Nc1c(O)c2c(c(O)c1Cl)C(=O)C=CC2=O | > 10 | – | 6 | > 10 | – | > 10 | > 10 | > 10 | > 10 | > 10 | > 10 | > 10 | > 10 | > 10 | > 10 | > 10 | > 10 | > 10 | > 10 | > 10
CN(c1cn(C2CC[C@@H](CO)O2)c(=O)[nH]c1=O)C1CCCCC1 (some centres undefined) | > 100 | > 100 | > 100 | > 100 | > 100 | > 100 | > 100 | > 100 | > 100 | > 100 | > 100 | > 100 | > 100 | – | > 100 | > 100 | > 100 | > 100 | – | > 100
O=c1cn[nH]c(=S)n1/N=C/c1c[nH]c2ccccc12 | > 100 | > 100 | > 100 | > 100 | > 100 | > 100 | – | > 100 | > 100 | > 100 | – | > 100 | > 100 | > 100 | > 100 | > 100 | 93.9 | > 100 | > 100 | > 100
O=C(O)CCCc1ccc2ccccc2c1 | > 100 | > 100 | > 100 | > 100 | > 100 | > 100 | > 100 | > 100 | > 100 | > 100 | > 100 | > 100 | > 100 | > 100 | – | > 100 | > 100 | > 100 | > 100 | > 100
CC(=O)Nc1nnc(S(C)(=O)=O)s1 | > 100 | > 100 | > 100 | > 100 | > 100 | > 100 | > 100 | > 100 | > 100 | > 100 | – | – | > 100 | > 100 | > 100 | > 100 | > 100 | > 100 | > 100 | –
FC(F)(Sc1ncc[nH]1)c1nc2ccccc2o1 | > 100 | > 100 | > 100 | > 100 | > 100 | > 100 | > 100 | > 100 | > 100 | > 100 | > 100 | > 100 | > 100 | – | > 100 | > 100 | > 100 | > 100 | > 100 | > 100
COC(=O)C1=C(C(=O)OC)SC2(S1)C(C(=O)OC)=C(C(=O)OC)Sc1c2ssc1=Nc1ccc(Cl)cc1 | – | 2.42 | 2.71 | 1.65 | 2.01 | 3.66 | 4.13 | 1.71 | 1.73 | 1.69 | 2.17 | 2.96 | 1.37 | 2.8 | – | – | 3.25 | 2.11 | 2.3 | 1.02
CCOC1Oc2ccccc2-c2nc(SC)ncc21 (centres undefined) | > 100 | > 100 | > 100 | > 100 | > 100 | – | > 100 | > 100 | > 100 | > 100 | > 100 | > 100 | > 100 | > 100 | – | > 100 | > 100 | > 100 | > 100 | –
COC(=O)C1(C(=O)OC)N=C(C)OC1/C=C/c1ccccc1 (centres undefined) | > 100 | > 100 | > 100 | > 100 | > 100 | > 100 | > 100 | > 100 | > 100 | > 100 | – | > 100 | > 100 | > 100 | – | > 100 | > 100 | > 100 | > 100 | > 100
C/C(=N\Nc1nc2cccnc2s1)c1ccccn1 | 21.5 | > 54.8 | – | > 100 | 0.307 | > 100 | 0.949 | 30.6 | > 100 | > 100 | 38.6 | 9.02 | > 100 | 5.73 | 42 | > 100 | 0.0147 | > 33.6 | – | 3.18
CC1=CC(=O)CC(C)(C)C1/C=C/C(C)=C/C=C/C(C)=C/C=C/C=C(C)/C=C/C=C(C)/C=C/C1=C(C)CC(O)CC1(C)C (centres undefined) | 73.4 | 45.3 | 72.1 | > 100 | > 100 | > 100 | > 100 | > 100 | 4.52 | > 100 | > 100 | > 100 | > 100 | > 100 | – | 27.9 | > 100 | > 100 | > 100 | 99.1
CCOC(=O)c1[nH]cc(C)c1-c1ccc2c(-c3ccccc3)nc3ccccc3n12 | 13.7 | 14.3 | 18.5 | 13.4 | 14.5 | 14.3 | 23.3 | 12.8 | 5.34 | 14.1 | 12.8 | 6.29 | 12 | 18.2 | – | – | 16.7 | 13.3 | 24.7 | 9.97
O=c1[nH]c(=O)n(C2OC(CO)C(O)C2O)cc1Oc1ccccc1 (centres undefined) | > 100 | > 100 | > 100 | > 100 | – | > 100 | > 100 | > 100 | > 100 | > 100 | > 100 | > 100 | > 100 | > 100 | > 100 | – | > 100 | > 100 | > 100 | > 100
Cc1nnc(N)nc1/C=C/c1c(O)ccc2ccccc12 | 44 | > 100 | – | > 100 | 84.6 | > 100 | > 100 | 64.1 | > 100 | > 100 | > 100 | 94.4 | 71.2 | 36 | – | > 100 | > 100 | > 100 | > 100 | 45.2
CSc1ncc2c(n1)sc1c(=O)n(-c3ccccc3)cnc12 | > 100 | – | > 100 | > 100 | > 100 | > 100 | > 100 | > 100 | > 100 | > 100 | > 100 | > 100 | > 100 | – | > 100 | > 100 | > 100 | > 100 | > 100 | > 100
O=C(CSc1nc2ccc(I)cc2c(=O)n1Cc1ccccc1)NNC(=O)c1ccccc1 | > 100 | 23.2 | 90.4 | 45.9 | 2.73 | 36.6 | 68.8 | 24 | 23.7 | > 100 | 28.2 | 33 | > 100 | 17.9 | – | 28 | 20.7 | > 100 | 57.2 | > 100
O=C1CSC(c2c[nH]c3ccccc23)N1c1ccccc1[N+](=O)[O-] (centres undefined) | > 100 | > 100 | > 100 | > 100 | > 100 | > 100 | > 100 | > 100 | > 100 | > 100 | > 100 | > 100 | > 100 | > 100 | – | > 100 | > 100 | > 100 | > 100 | > 100
